Broadly, the Ki is a dissociation constant, usually derived from enzyme kinetics or from competition with a known ligand. Low values mean a stronger hold on the target, high ones a looser hold on the target. One may read the IC50 as the concentration that gives 50% inhibition. Read a high IC50 as a need for much substance.

SMILES strings stand for the structures.

Assay [1] is described as follows: Disassociation constant (KI) was obtained from Cheng and Prusoff equation for quercetin trypsin complex.
In the next assay the target is T1, Serine protease 1 (Bos taurus, UniProt P00760).
T1 sequence (P00760 whole entry): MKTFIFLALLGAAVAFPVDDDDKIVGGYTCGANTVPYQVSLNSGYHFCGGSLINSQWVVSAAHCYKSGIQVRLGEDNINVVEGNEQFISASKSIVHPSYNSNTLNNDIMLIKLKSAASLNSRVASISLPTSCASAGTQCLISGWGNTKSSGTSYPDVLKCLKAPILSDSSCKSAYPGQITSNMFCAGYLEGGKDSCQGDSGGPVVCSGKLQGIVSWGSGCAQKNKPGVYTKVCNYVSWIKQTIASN
As to the kind of experiment: Inhibitory concentration of the compounds against Bovine trypsin enzyme.

Turning to `O=c1cc(-c2ccc(O)cc2)oc2cc(O)cc(O)c12` [APIGENIN], affinity in assay [1] was put at a Ki of 39.5 µM. Besides, half-maximal inhibition at Serine protease 1 (IC50) was put at 142 µM.
As for `O=c1c(O)c(-c2ccc(O)cc2)oc2cc(O)cc(O)c12` [KAEMPFEROL], the Ki in assay [1] worked out at 29.5 µM. Moreover, 106 µM corresponded to half-maximal inhibition on Serine protease 1 (IC50).
Taken in the same sequence, the figures for `O=c1cc(-c2ccc(O)c(O)c2)oc2cc(O)cc(O)c12` [LUTEOLIN] were 9.84 µM and 35.3 µM.
For `O=c1c(O)c(-c2ccc(O)cc2O)oc2cc(O)cc(O)c12` [MORIN] the same measures were 30.9 µM and 111 µM.
The compound `O=c1c(O)c(-c2cc(O)c(O)c(O)c2)oc2cc(O)cc(O)c12` [MYRICETIN] had a Ki in assay [1] of 2.84 µM. Moreover, on Serine protease 1, the IC50 came to 10.2 µM.
Compound `O=c1c(O)c(-c2ccc(O)c(O)c2)oc2cc(O)cc(O)c12` [QUERCETIN] displayed an inhibition constant (Ki) in assay [1] of 1.98 µM.
Turning to `COc1cc([C@@H]2Oc3c(O)cc([C@H]4Oc5cc(O)cc(O)c5C(=O)[C@@H]4O)cc3[C@H]2CO)ccc1O` [SILICRISTIN], the affinity in assay [1] corresponds to a Ki of 40.3 µM. Also, inhibition on Serine protease 1 was half-maximal at 144 µM (IC50).
